{"source": "paper PMC2397535", "about": "(Breast Cancer Research : BCR, 2008)", "key": {"BT-474": {"test_system": "BT-474", "experiment": "antiproliferative effect (GI50), breast cancer cell line", "assay_type": "cell-based", "details": "Homo sapiens"}, "BT20": {"test_system": "BT20", "experiment": "antiproliferative effect (GI50), breast cancer cell line", "assay_type": "cell-based", "details": "Homo sapiens, BT-20"}, "MDA-MB-157": {"test_system": "MDA-MB-157", "experiment": "antiproliferative effect (GI50), breast cancer cell line", "assay_type": "cell-based", "details": "Homo sapiens"}, "MDA-MB-468": {"test_system": "MDA-MB-468", "experiment": "antiproliferative effect (GI50), breast cancer cell line", "assay_type": "cell-based", "details": "Homo sapiens"}, "MCF-7": {"test_system": "MCF-7", "experiment": "antiproliferative effect (GI50), breast cancer cell line", "assay_type": "cell-based", "details": "Homo sapiens, MCF7"}, "MAXF 1322": {"test_system": "MAXF 1322", "experiment": "clonogenic (soft agar colony formation) assay, primary breast tumor", "assay_type": "cell-based, human"}, "MAXF 401": {"test_system": "MAXF 401", "experiment": "clonogenic (soft agar colony formation) assay, primary breast tumor", "assay_type": "cell-based, human"}, "MAXF 574": {"test_system": "MAXF 574", "experiment": "clonogenic (soft agar colony formation) assay, primary breast tumor", "assay_type": "cell-based, human"}, "[1]": {"test_system": "human breast cancer explants", "experiment": "clonogenic assay, six human breast cancer explants (summary values)", "assay_type": "cell-based"}, "[2]": {"test_system": "ERBB2, AKT, phospho-AKT in BT-474 cells", "experiment": "client protein levels in BT-474 cells (Western blot)", "assay_type": "cell-based, human", "experimental": "(§1) To assess total levels of AKT, phosphorylated AKT, β-tubulin, and ERBB2 in the cell extracts, 20 to 30 μg of total protein was resolved by the appropriate-percentage SDS-PAGE. The following antibodies were used for immunoblotting: anti-AKT (cat. no. 9272, rabbit polyclonal; Cell Signaling Technology, Inc.), anti-phospho-AKT (Ser473) (cat. no. 9271, rabbit polyclonal; Cell Signaling Technology, Inc.), anti-β-tubulin (cat. no. T 4026, mouse monoclonal, clone Tub2.1; Sigma-Aldrich, St. Louis, MO, USA), and anti-ERBB2 (cat. no. 28-0004, rabbit polyclonal; Zymed Laboratories Inc., now part of Invitrogen Corporation, Carlsbad, CA, USA). Bound antibodies on PVDF immunoblots were detected by Amersham ECL (Amersham, now part of GE Healthcare, Little Chalfont, Buckinghamshire, UK) or infrared fluorescence detection (LI-COR Biosciences, Lincoln, NE, USA)."}, "phospho-AKT (Ser473)": {"test_system": "phospho-AKT (Ser473)", "experiment": "AKT phosphorylation in BT-474 xenografts (Western blot)", "assay_type": "in vivo, mice", "experimental": "as §1\n(§2) Invasive procedures were performed under Forene anesthesia. […] The animals were fed food and water ad libitum."}, "[3]": {"test_system": "BT-474 breast cancer xenograft", "experiment": "antitumor effect in BT-474 breast cancer xenograft model", "assay_type": "in vivo, mice", "details": "for T/C / Tumor volume change: day 20", "experimental": "as §2\n(§3) Tumor growth and body weights were monitored at regular intervals. The xenograft tumor sizes were measured manually with calipers, and the tumor volume was estimated using the formula (w × l × h × π/6), where width (w), height (h), and length (l) are the three largest diameters.\n(§4) When applicable, results are presented as mean ± standard error of the mean. Tumor and body weight data were analyzed by analysis of variance (ANOVA) with the post hoc Dunnett test for comparison of treatment versus control groups. The post hoc Tukey test was used for intragroup comparison. Statistical analysis was performed using GraphPad Prism 5 (GraphPad Software, Inc., San Diego, CA, USA). As a measure of efficacy, the %T/C value is calculated at the end of the experiment according to (Δtumor volumetreated/Δtumor volumecontrol) × 100, where Δtumor volumes represent the mean tumor volume on the evaluation day minus the mean tumor volume at the start of the experiment."}, "[4]": {"experiment": "tolerability (body weight, survival) in BT-474 tumor-bearing nude mice", "assay_type": "in vivo", "experimental": "as §2, §3, §4"}, "HSP90α": {"test_system": "HSP90α", "details": "read-out: IC50 (median inhibition concentration); cited from earlier work"}}, "note": "Where two headings read alike, the source gives them in different places. Marks after values point to notes of the source that are not given here.", "data": [{"smiles": "CCNC(=O)c1noc(-c2cc(C(C)C)c(O)cc2O)c1-c1ccc(CN2CCOCC2)cc1", "note": "[NVP-AUY922]", "values": [{"measurement": "GI50", "setting": "BT-474", "value": "3.1 ± 1.4", "unit": "nM"}, {"measurement": "GI50", "setting": "BT20", "value": "4 ± 1.4", "unit": "nM"}, {"measurement": "GI50", "setting": "MDA-MB-157", "value": "126 ± 37", "unit": "nM"}, {"measurement": "GI50", "setting": "MDA-MB-468", "value": "6.3 ± 2.6", "unit": "nM"}, {"measurement": "GI50", "setting": "MCF-7", "value": "8.8 ± 1.8", "unit": "nM"}, {"measurement": "IC70 (colony formation)", "setting": "MAXF 1322", "value": 48, "unit": "nM"}, {"measurement": "IC50", "setting": "MAXF 1322; Homo sapiens", "value": 29, "unit": "nM"}, {"measurement": "IC70 (colony formation)", "setting": "MAXF 401", "value": 295, "unit": "nM"}, {"measurement": "IC50", "setting": "MAXF 401; Homo sapiens, MAXF401", "value": 78, "unit": "nM"}, {"measurement": "IC70 (colony formation)", "setting": "MAXF 574", "value": ">10,000 nM"}, {"measurement": "IC50", "setting": "MAXF 574; Homo sapiens", "value": "> 10000", "unit": "nM"}, {"measurement": "GI50", "setting": "[1]; Homo sapiens, one highly resistant tumor explant, highest concentration evaluated, read-out: GI50", "value": "> 10000", "unit": "nM"}, {"measurement": "average GI70", "setting": "[1]; five out of the six human breast cancer explants", "value": 379, "unit": "nM"}, {"measurement": "GI50", "setting": "[1]; five out of the six human breast cancer explants, read-out: average GI50", "value": 191, "unit": "nM"}, {"measurement": "concentration required for significant reduction of protein AKT levels", "setting": "[2]", "value": "[…]"}, {"measurement": "phospho-AKT levels", "setting": "[2]; 50 nM", "value": "decrease in the levels of phospho-AKT"}, {"measurement": "total ERBB2 levels", "setting": "[2]; 50 nM", "value": "decrease in total ERBB2 levels"}, {"measurement": "phospho-AKT levels", "setting": "phospho-AKT (Ser473); single dose 30 mg/kg i.v.", "value": "reductions in phospho-AKT levels"}, {"measurement": "phospho-AKT levels", "setting": "phospho-AKT (Ser473); single i.v. dose 25 mg/kg, tumors dissected 6 hours later", "value": "reduction in phospho-AKT levels"}, {"measurement": "T/C", "setting": "[3]; 8.3 mg/kg once per week", "value": 95, "unit": "percentage"}, {"measurement": "Tumor volume change", "setting": "[3]; 8.3 mg/kg once per week", "value": "252 ± 73", "unit": "cubic millimeters"}, {"measurement": "T/C", "setting": "[3]; 17 mg/kg once per week", "value": 72, "unit": "percentage"}, {"measurement": "Tumor volume change", "setting": "[3]; 17 mg/kg once per week", "value": "191 ± 61", "unit": "cubic millimeters"}, {"measurement": "T/C", "setting": "[3]; 25 mg/kg once per week", "value": 12, "unit": "percentage"}, {"measurement": "Tumor volume change", "setting": "[3]; 25 mg/kg once per week", "value": "32 ± 15^a cubic millimeters"}, {"measurement": "T/C", "setting": "[3]; 41 mg/kg once per week", "value": 3, "unit": "percentage"}, {"measurement": "Tumor volume change", "setting": "[3]; 41 mg/kg once per week", "value": "9 ± 13^a cubic millimeters"}, {"measurement": "T/C", "setting": "[3]; 58 mg/kg once per week", "value": 8, "unit": "percentage"}, {"measurement": "Tumor volume change", "setting": "[3]; 58 mg/kg once per week", "value": "22 ± 26^a cubic millimeters"}, {"measurement": "tumor response", "setting": "[3]; once per week i.v., 8.3 to 17 mg/kg", "value": "did not result in a significant effect on tumor growth"}, {"measurement": "tumor response", "setting": "[3]; once per week i.v., 25 to 58 mg/kg", "value": "highly efficacious"}, {"measurement": "tumor growth", "setting": "[3]; single i.v. dose 17 mg/kg", "value": "indication of retarded tumor growth"}, {"measurement": "time without significant tumor growth after administration", "setting": "[3]; single i.v. dose 25 mg/kg", "value": "[…]"}, {"measurement": "tumor size at end corresponds to control tumor size this much earlier", "setting": "[3]; single i.v. dose 25 mg/kg", "value": "approximately 10 days"}, {"measurement": "tumor size versus control group at the end of the experiment", "setting": "[3]; single i.v. dose 25 mg/kg, 21 days, P < 0.05", "value": "statistically significantly smaller"}, {"measurement": "tumor response", "setting": "[3]; three times per week i.v., 10 mg/kg", "value": "did not result in a significant effect on tumor growth"}, {"measurement": "tumor response", "setting": "[3]; three times per week i.v., 30 and 50 mg/kg", "value": "tumor regression"}, {"measurement": "body weights compared with vehicle", "setting": "[4]; single i.v. administration, 17 or 25 mg/kg", "value": "did not affect body weights"}, {"measurement": "body weight", "setting": "[4]; three times per week i.v., all dose levels (10, 30, 50 mg/kg)", "value": "significant body weight loss"}, {"measurement": "IC50", "setting": "HSP90α", "value": "[…]"}]}]}
